# Experimental data from US8198273B2, “Compounds and methods for kinase modulation, and indications therefor” (Plexxikon Inc., priority 2009, dated 2012).
# pIC50: −log10 of the molar value.
# Tests used:
# B-Raf = B-Raf (Homo sapiens, UniProt P15056); assay: B-Raf biochemical kinase inhibition (AlphaScreen, biotin-MEK1 substrate); details: 100 μM ATP
# Summary of the method: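 Serial 1:3 dilutions of compound (0.1 mM DMSO stock, eight points) were added first, then ATP to start the reaction at 100 μM final.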
# [1] = Relative solubility by turbidity in aqueous buffers of varying pH; format: physicochemical; details: for turbidity threshold (L, M, H) 7.4: HEPES pH 7.4; for turbidity threshold (L, M, H) 4.5: SIF pH 4.5; for turbidity threshold (L, M, H) 6.8: SIF pH 6.8; for turbidity threshold (L, M, H) 1.4: buffer pH 1.4 (SGF)
# Summary of the method: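 Turbidity endpoint: concentration where optical density at 490, 535 and 650 nm exceeds 0.01, three-wavelength average used. Buffers at pH 1.5, 4.5, 6.8 and 7.4; DMSO serial dilutions of 25 mM stock spiked 1 μL into 99 μL buffer. Low <31.3, moderate 31.3–250, high >250 μM.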
# [2] = test system: COLO205 colon adenocarcinoma cells (B-Raf V600E); assay: COLO205 cell growth inhibition (ATPlite); format: cell-based; details: Homo sapiens, COLO 205, 72 h; COLO205, 3 days incubation
# Summary of the method: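 ATPlite luminescence, taken as a cell-number measure, gave IC50 values after a 3-day 37° C, 5% CO2 incubation. Compounds were tested as 8-point threefold titrations, highest final concentration 10 μM, added to cells seeded the day before.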
# B-Raf, sequence (P15056 whole entry): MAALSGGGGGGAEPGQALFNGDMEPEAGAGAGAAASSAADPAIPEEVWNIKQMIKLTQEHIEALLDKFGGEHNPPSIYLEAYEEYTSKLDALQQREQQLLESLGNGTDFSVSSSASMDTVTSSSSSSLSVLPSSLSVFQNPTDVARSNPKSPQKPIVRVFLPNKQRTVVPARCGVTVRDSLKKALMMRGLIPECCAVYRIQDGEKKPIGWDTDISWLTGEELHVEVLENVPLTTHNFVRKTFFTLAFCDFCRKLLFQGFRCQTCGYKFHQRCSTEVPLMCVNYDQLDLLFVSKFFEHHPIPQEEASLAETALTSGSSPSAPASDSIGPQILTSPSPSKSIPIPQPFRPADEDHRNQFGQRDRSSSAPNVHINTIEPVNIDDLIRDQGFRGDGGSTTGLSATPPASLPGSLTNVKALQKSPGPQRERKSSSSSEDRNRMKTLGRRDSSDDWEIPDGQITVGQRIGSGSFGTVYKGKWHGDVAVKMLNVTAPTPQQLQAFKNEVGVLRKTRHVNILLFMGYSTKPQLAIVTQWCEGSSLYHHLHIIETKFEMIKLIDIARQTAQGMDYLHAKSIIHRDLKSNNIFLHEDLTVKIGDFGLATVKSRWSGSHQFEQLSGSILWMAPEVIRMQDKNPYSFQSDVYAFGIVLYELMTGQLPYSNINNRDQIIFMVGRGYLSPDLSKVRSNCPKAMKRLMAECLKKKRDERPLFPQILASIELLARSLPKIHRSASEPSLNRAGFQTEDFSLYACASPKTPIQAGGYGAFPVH
SMILES,pIC50 (B-Raf),"turbidity threshold (L, M, H) 7.4 [1]","turbidity threshold (L, M, H) 4.5 [1]","turbidity threshold (L, M, H) 6.8 [1]","turbidity threshold (L, M, H) 1.4 [1]",pIC50 [2]
"CCCS(=O)(=O)Nc1ccc(F)c(C(=O)c2c[nH]c3ncc(-c4ccc(NC(C)=O)nc4)cc23)c1F [P-2193, N-(5-{3-[2,6-Difluoro-3-(propane-1-sulfonylamino)-benzoyl]-1H-pyrrolo[2,3-b]pyridin-5-yl}-pyridin-2-yl)-acetamide]",> 8.00,L (low solubility if the threshold concentration is <31.3 04),L (low solubility if the threshold concentration is <31.3 04),L (low solubility if the threshold concentration is <31.3 04),M (moderate solubility if the threshold concentration is 31.3 μM to 250 μM),> 6.00
"COc1ncc(-c2cnc3[nH]cc(C(=O)c4c(F)ccc(NS(=O)(=O)c5c(F)cccc5F)c4F)c3c2)cn1 [P-2043, N-{2,4-Difluoro-3-[5-(2-methoxy-pyrimidin-5-yl)-1H-pyrrolo[2,3-b]pyridine-3-carbonyl]-phenyl}-2,6-difluoro-benzenesulfonamide]",> 8.00,M (moderate solubility if the threshold concentration is 31.3 μM to 250 μM),L (low solubility if the threshold concentration is <31.3 04),L (low solubility if the threshold concentration is <31.3 04),L (low solubility if the threshold concentration is <31.3 04),> 6.00
"CCCS(=O)(=O)Nc1ccc(F)c(C(=O)c2c[nH]c3ncc(-c4cn[nH]c4)cc23)c1F [P-2174, Propane-1-sulfonic acid {2,4-difluoro-3-[5-(1H-pyrazol-4-yl)-1H-pyrrolo[2,3-b]pyridine-3-carbonyl]-phenyl}-amide]",> 8.00,L (low solubility if the threshold concentration is <31.3 04),L (low solubility if the threshold concentration is <31.3 04),L (low solubility if the threshold concentration is <31.3 04),L (low solubility if the threshold concentration is <31.3 04),> 6.00
"CCCS(=O)(=O)Nc1ccc(F)c(C(=O)c2c[nH]c3ncc(-c4ccc(C#CCN(CC)CC)nc4)cc23)c1F [P-2222, Propane-1-sulfonic acid (3-{5-[6-(3-diethylamino-prop-1-ynyl)-pyridin-3-yl]-1H-pyrrolo[2,3-b]pyridine-3-carbonyl}-2,4-difluoro-phenyl)-amide]",> 8.00,L (low solubility if the threshold concentration is <31.3 04),L (low solubility if the threshold concentration is <31.3 04),L (low solubility if the threshold concentration is <31.3 04),L (low solubility if the threshold concentration is <31.3 04),> 7.00
"CCCS(=O)(=O)Nc1ccc(F)c(C(=O)c2c[nH]c3ncc(-c4ccc(C)nc4)cc23)c1F [P-2213, Propane-1-sulfonic acid {2,4-difluoro-3-[5-(6-methyl-pyridin-3-yl)-1H-pyrrolo[2,3-b]pyridine-3-carbonyl]-phenyl}-amide]",> 8.00,L (low solubility if the threshold concentration is <31.3 04),M (moderate solubility if the threshold concentration is 31.3 μM to 250 μM),L (low solubility if the threshold concentration is <31.3 04),H (high solubility if the threshold concentration is >250 μM),> 6.00
"N#Cc1cnc2[nH]cc(C(=O)c3cccc(NS(=O)(=O)c4cccc(F)c4)c3F)c2c1 [P-2053, N-[3-(5-Cyano-1H-pyrrolo[2,3-b]pyridine-3-carbonyl)-2-fluoro-phenyl]-3-fluoro-benzenesulfonamide]",> 8.00,M (moderate solubility if the threshold concentration is 31.3 μM to 250 μM),L (low solubility if the threshold concentration is <31.3 04),M (moderate solubility if the threshold concentration is 31.3 μM to 250 μM),L (low solubility if the threshold concentration is <31.3 04),> 6.00
"O=C(c1c(F)ccc(NS(=O)(=O)c2ccccc2F)c1F)c1c[nH]c2nccc(Cl)c12 [P-2017, N-[3-(4-Chloro-1H-pyrrolo[2,3-b]pyridine-3-carbonyl)-2,4-difluoro-phenyl]-2-fluoro-benzenesulfonamide]",> 7.00,M (moderate solubility if the threshold concentration is 31.3 μM to 250 μM),M (moderate solubility if the threshold concentration is 31.3 μM to 250 μM),M (moderate solubility if the threshold concentration is 31.3 μM to 250 μM),M (moderate solubility if the threshold concentration is 31.3 μM to 250 μM),> 5.30
"COc1cnc2[nH]cc(C(=O)c3c(F)ccc(NS(=O)(=O)c4ccccc4F)c3F)c2c1 [P-2009, N-[2,4-Difluoro-3-(5-methoxy-1H-pyrrolo[2,3-b]pyridine-3-carbonyl)-phenyl]-2-fluoro-benzenesulfonamide]",> 7.00,M (moderate solubility if the threshold concentration is 31.3 μM to 250 μM),L (low solubility if the threshold concentration is <31.3 04),L (low solubility if the threshold concentration is <31.3 04),L (low solubility if the threshold concentration is <31.3 04),> 5.30
"CCCS(=O)(=O)Nc1ccc(F)c(C(=O)c2c[nH]c3ncc(-c4ccc(CCCOC)nc4)cc23)c1F [P-2226, Propane-1-sulfonic acid (2,4-difluoro-3-{5-[6-(3-methoxy-propyl)-pyridin-3-yl]-1H-pyrrolo[2,3-b]pyridine-3-carbonyl}-phenyl)-amide]",> 8.00,L (low solubility if the threshold concentration is <31.3 04),L (low solubility if the threshold concentration is <31.3 04),L (low solubility if the threshold concentration is <31.3 04),H (high solubility if the threshold concentration is >250 μM),> 7.00
"CCCS(=O)(=O)Nc1ccc(F)c(C(=O)c2c[nH]c3ncc(-c4ccc(C(=O)NCC)nc4)cc23)c1F [P-2151, 5-{3-[2,6-Difluoro-3-(propane-1-sulfonylamino)-benzoyl]-1H-pyrrolo[2,3-b]pyridin-5-yl}-pyridine-2-carboxylic acid ethylamide]",> 8.00,L (low solubility if the threshold concentration is <31.3 04),L (low solubility if the threshold concentration is <31.3 04),L (low solubility if the threshold concentration is <31.3 04),L (low solubility if the threshold concentration is <31.3 04),> 6.00
"COc1ccnc2[nH]cc(C(=O)c3c(F)ccc(NS(=O)(=O)c4cc(F)ccc4F)c3F)c12 [P-2022, N-[2,4-Difluoro-3-(4-methoxy-1H-pyrrolo[2,3-b]pyridine-3-carbonyl)-phenyl]-2,5-difluoro-benzenesulfonamide]",> 7.00,H (high solubility if the threshold concentration is >250 μM),M (moderate solubility if the threshold concentration is 31.3 μM to 250 μM),M (moderate solubility if the threshold concentration is 31.3 μM to 250 μM),H (high solubility if the threshold concentration is >250 μM),> 5.30
"COc1cnc2[nH]cc(C(=O)c3c(F)ccc(NS(=O)(=O)c4cc(F)ccc4F)c3F)c2c1 [P-2010, N-[2,4-Difluoro-3-(5-methoxy-1H-pyrrolo[2,3-b]pyridine-3-carbonyl)-phenyl]-2,5-difluoro-benzenesulfonamide]",> 7.00,M (moderate solubility if the threshold concentration is 31.3 μM to 250 μM),L (low solubility if the threshold concentration is <31.3 04),M (moderate solubility if the threshold concentration is 31.3 μM to 250 μM),L (low solubility if the threshold concentration is <31.3 04),> 6.00
"CCCS(=O)(=O)Nc1ccc(F)c(C(=O)c2c[nH]c3ncc(-c4ccc(S(=O)(=O)NC)cc4)cc23)c1F [P-2167, 4-{3-[2,6-Difluoro-3-(propane-1-sulfonylamino)-benzoyl]-1H-pyrrolo[2,3-b]pyridin-5-yl}-N-methyl-benzenesulfonamide]",> 8.00,,,,,> 7.00
"CCCS(=O)(=O)Nc1ccc(F)c(C(=O)c2c[nH]c3ncc(-c4ccc(SC)nc4)cc23)c1F [P-2187, Propane-1-sulfonic acid {2,4-difluoro-3-[5-(6-methylsulfanyl-pyridin-3-yl)-1H-pyrrolo[2,3-b]pyridine-3-carbonyl]-phenyl}-amide]",> 8.00,,,,,> 6.00
"N#Cc1ccnc2[nH]cc(C(=O)c3c(F)ccc(NS(=O)(=O)c4cc(F)ccc4F)c3F)c12 [P-2036, N-[3-(4-Cyano-1H-pyrrolo[2,3-b]pyridine-3-carbonyl)-2,4-difluoro-phenyl]-2,5-difluoro-benzenesulfonamide]",> 8.00,,,,,> 6.00
